# Assay results from US9840494B2, “Quinazoline derivative” (Tianjin Hemay Oncology Pharmaceutical Co., Ltd., priority 2013, dated 2017).
# Where a name gives a salt, the structure may show the parent alone.
# Experiments:
# [1] = MTD assay, single administration to mice; format: in vivo; conditions: ICR male mice, tail intravenous administration, 14 days
# Text: MTD Assay for a Single […] to Mice
# 1. Experimental Animals: ICR male mice, weighing 19-22 g, were purchased from Beijing Vital River Laboratory Animal Technology Co., Ltd., Animal License No. SCXK (Beijing) 2007-0001
# 2. Experimental Scheme: 21 mice were divided into nine groups: groups I, IV and VI referred to one mouse per group, groups II, V and IIX referred to four mice per group, and group III, VI and IX referred to two mice per group. Compound 4, compound 2 and compound 12 were dissolved in water for injection. Groups I-III were subjected to tail intravenous administration of compound 4 (N-[4-(3-chloro-4-fluorophenylamino)-7-(2-methoxyethoxy)quinazolin-6yl]-2-[piperidin-4-ylidene]acetamide dihydrochloride) at doses of 100 mg/kg, 150 mg/kg, and 200 mg/kg, respectively. The animal response and the weight change were observed after administration, and these animals were sacrificed after 14 days for anatomical observation. Groups IV-VI were subjected to tail intravenous administration of compound 2 (N-[4-(3-chloro-4-fluorophenylamino)-7-(2-methoxyethoxy)quinazolin-6yl]-2-[1-(2-methoxyethyl)piperidin-4-ylidene]acetamide dihydrochloride) at doses of 100 mg/kg, 150 mg/kg, and 200 mg/kg, respectively. The animal response and the weight change were observed after administration, and these animals were sacrificed after 14 days for anatomical observation. Groups VII-IX were subjected to tail intravenous administration of compound 12 (N-[4-(3-ethynylphenylamino-7-(2-ethoxy)quinazolin-6yl]-2-[1-methylpiperidin-4-ylidene]acetamide dihydrochloride) at doses of 100 mg/kg, 150 mg/kg, and 200 mg/kg, respectively. The animal response and the weight change were observed after administration, and these animals were sacrificed after 14 days for anatomical observation.
# [2] = Preliminary pharmacokinetic studies; format: in vivo
# [3] = FDA application records; cited from earlier work
# [4] = Li D et al., Oncogene 2008; cited from earlier work
SMILES,"Mortality ([1]; 100 mg/kg, 1 animal)","Number of Deaths ([1]; 100 mg/kg, 1 animal)","Mortality ([1]; 150 mg/kg, 4 animals)","Number of Deaths ([1]; 150 mg/kg, 4 animals)","Mortality ([1]; 200 mg/kg, 2 animals)","Number of Deaths ([1]; 200 mg/kg, 2 animals)",distribution (gathering in the gastrointestinal tract) [2],oral bioavailability [2],bioavailability [3],MTD [4]
"C#Cc1cccc(Nc2ncnc3cc(OCC)c(NC(=O)C=C4CCN(C)CC4)cc23)c1 [Compound 12, N-[4-(3-ethynylphenylamino-7-(2-ethoxy)quinazolin-6-yl]-2-[1-methylpiperidin-4-ylidene]acetamidedihydrochloride]",0%,0,50%,2,100%,2,gathered in the gastrointestinal tract,very low,,
"COCCOc1cc2ncnc(Nc3ccc(F)c(Cl)c3)c2cc1NC(=O)C=C1CCNCC1 [Compound 4, N-[4-(3-chloro-4-fluorophenylamino)-7-(2-methoxyethoxy)quinazolin-6yl]-2-[piperidin-4-ylidene]acetamide dihydrochloride]",0%,0,0%,0,50%,1,gathered in the gastrointestinal tract,very low,,
CN(C)C/C=C/C(=O)Nc1cc2c(Nc3ccc(F)c(Cl)c3)ncnc2cc1O[C@H]1CCOC1 [Afatinib],,,,,,,,,11.175%,30 mg/kg
